The target in this assay is Coagulation factor X (Homo sapiens) (UniProt P00742). The assay can be described thus: Compound was evaluated for the inhibition of anti-thrombin III (AT III)-mediated coagulation proteinase factor Xa.
Sequence of Coagulation factor X (Homo sapiens) (P00742 41-179 limits assumed): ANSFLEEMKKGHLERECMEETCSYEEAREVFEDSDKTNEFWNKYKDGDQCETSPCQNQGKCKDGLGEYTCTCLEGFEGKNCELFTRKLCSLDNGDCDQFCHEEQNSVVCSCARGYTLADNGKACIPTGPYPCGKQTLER
Sequence of Coagulation factor X (Homo sapiens) (P00742 235-488 limits assumed): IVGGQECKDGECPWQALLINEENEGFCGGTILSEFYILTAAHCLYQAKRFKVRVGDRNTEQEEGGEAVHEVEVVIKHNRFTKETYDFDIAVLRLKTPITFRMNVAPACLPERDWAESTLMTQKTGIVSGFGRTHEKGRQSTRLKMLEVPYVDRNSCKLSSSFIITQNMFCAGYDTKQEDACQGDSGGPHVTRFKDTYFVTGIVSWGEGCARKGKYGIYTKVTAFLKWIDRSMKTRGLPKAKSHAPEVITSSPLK
The compound `CCCCCCCCO[C@@H]1[C@@H](OS(=O)(=O)O)[C@H](O[C@H]2[C@H](OS(=O)(=O)O)[C@@H](OS(=O)(=O)O)[C@@H](OC)O[C@@H]2COS(=O)(=O)O)O[C@@H](C(=O)O)[C@H]1O[C@@H]1O[C@H](COS(=O)(=O)O)[C@@H](O[C@@H]2O[C@H](C(=O)O)[C@@H](O[C@@H]3O[C@H](COS(=O)(=O)O)[C@@H](OC)[C@H](OC)[C@H]3OS(=O)(=O)O)[C@H](OCCCC)[C@H]2OCCCC)[C@H](OS(=O)(=O)O)[C@H]1OS(=O)(=O)O` showed an Activity of 700 U mg-1.

With `CO[C@H]1O[C@H](COS(=O)(=O)O)[C@@H](O[C@@H]2O[C@@H](C(=O)O)[C@@H](O[C@@H]3O[C@H](COS(=O)(=O)O)[C@@H](O[C@@H]4O[C@H](C(=O)O)[C@@H](O[C@@H]5O[C@H](COS(=O)(=O)O)[C@@H](OC)[C@H](OC)[C@H]5OS(=O)(=O)O)[C@H](OC)[C@H]4OC)[C@H](OS(=O)(=O)O)[C@H]3OS(=O)(=O)O)[C@H](OCCCc3ccccc3)[C@H]2OS(=O)(=O)O)[C@H](OS(=O)(=O)O)[C@H]1OS(=O)(=O)O`, the Activity was determined as 434 U mg-1.

`CCCCO[C@@H]1[C@@H](OCCCC)[C@H](O[C@H]2[C@H](OS(=O)(=O)O)[C@@H](OS(=O)(=O)O)[C@H](O[C@H]3[C@H](OC)[C@@H](OS(=O)(=O)O)[C@H](O[C@H]4[C@H](OS(=O)(=O)O)[C@@H](OS(=O)(=O)O)[C@@H](OC)O[C@@H]4COS(=O)(=O)O)O[C@H]3C(=O)O)O[C@@H]2COS(=O)(=O)O)O[C@H](C(=O)O)[C@H]1O[C@@H]1O[C@H](COS(=O)(=O)O)[C@@H](OC)[C@H](OC)[C@H]1OS(=O)(=O)O` gave an Activity of 1100 U mg-1.

`CO[C@H]1O[C@H](COS(=O)(=O)O)[C@@H](O[C@@H]2O[C@@H](C(=O)O)[C@@H](O[C@@H]3O[C@H](COS(=O)(=O)O)[C@@H](O[C@@H]4O[C@H](C(=O)O)[C@@H](O[C@@H]5O[C@H](COS(=O)(=O)O)[C@@H](OC)[C@H](OC)[C@H]5OS(=O)(=O)O)[C@H](OC)[C@H]4OC)[C@H](OS(=O)(=O)O)[C@H]3OS(=O)(=O)O)[C@H](OC)[C@H]2OS(=O)(=O)O)[C@H](OS(=O)(=O)O)[C@H]1OS(=O)(=O)O` gave an Activity of 1320 U mg-1.

For `CCCCO[C@@H]1[C@@H](OS(=O)(=O)O)[C@H](O[C@H]2[C@H](OS(=O)(=O)O)[C@@H](OS(=O)(=O)O)[C@@H](OC)O[C@@H]2COS(=O)(=O)O)O[C@@H](C(=O)O)[C@H]1O[C@@H]1O[C@H](COS(=O)(=O)O)[C@@H](O[C@@H]2O[C@H](C(=O)O)[C@@H](O[C@@H]3O[C@H](COS(=O)(=O)O)[C@@H](OC)[C@H](OC)[C@H]3OS(=O)(=O)O)[C@H](OC)[C@H]2OC)[C@H](OS(=O)(=O)O)[C@H]1OS(=O)(=O)O`, the Activity was determined as 994 U mg-1.

`CO[C@H]1O[C@H](COS(=O)(=O)O)[C@@H](O[C@@H]2O[C@@H](C(=O)O)[C@@H](O[C@@H]3O[C@H](COS(=O)(=O)O)[C@@H](O[C@@H]4O[C@H](C(=O)O)[C@@H](O[C@@H]5O[C@H](COS(=O)(=O)O)[C@@H](O)[C@H](O)[C@H]5NS(=O)(=O)O)[C@H](O)[C@H]4O)[C@H](OS(=O)(=O)O)[C@H]3NS(=O)(=O)O)[C@H](O)[C@H]2OS(=O)(=O)O)[C@H](OS(=O)(=O)O)[C@H]1NS(=O)(=O)O` had an Activity of 1250 U mg-1.

In the case of `CCCCO[C@@H]1[C@@H](OS(=O)(=O)O)[C@H](O[C@H]2[C@H](OC)[C@@H](OC)[C@H](O[C@H]3[C@H](OS(=O)(=O)O)[C@@H](OS(=O)(=O)O)[C@H](O[C@H]4[C@H](OC)[C@@H](OS(=O)(=O)O)[C@H](O[C@H]5[C@H](OS(=O)(=O)O)[C@@H](OS(=O)(=O)O)[C@@H](OC)O[C@@H]5COS(=O)(=O)O)O[C@H]4C(=O)O)O[C@@H]3COS(=O)(=O)O)O[C@@H]2C(=O)O)O[C@H](COS(=O)(=O)O)[C@H]1OCCCC`, the Activity is 1500 U mg-1.

The record behind these values is ChEMBL document CHEMBL1126461, “Biologically active heparin-like fragments with a non-glycosaminoglycan structure. Part 3 : o-alkylated-o-sulphated pentasaccharides” (Bioorg Med Chem Lett, 1992).
